Test results reported in paper PMC5124248, “Antitumor activity of TY-011 against gastric cancer by inhibiting Aurora A, Aurora B and VEGFR2 kinases” (Journal of Experimental & Clinical Cancer Research : CR, 2016).

Test system: human MGC-803 xenograft
Assay: Antitumor activity in vivo, MGC-803 xenograft in nude mice
Design: species or system BALB/c nu/nu mice
Conditions: 50 mg/kg intraperitoneally twice a week
Protocol: The animals were housed in specific pathogen-free (SPF) conditions at Key Laboratory of Brain Functional Genomics, Ministry of Education, and were acclimatized for a week prior to use. […] When the tumors reached a mean group size of 100 ~ 150 mm^3, the mice were randomized into control and treatment groups to receive treatment accordingly. […] The tumor growth was recorded with the measurement of length (L) and width (W) by caliper every other day, and calculated as tumor volume (V) = L × W^2/2. Meanwhile, the body weights of mice were recorded. The tumor volume at day n was expressed as relative tumor volume (RTV) according to the following formula: RTV% = (TVn/TV0) ×100%, where TVn is the tumor volume at day n and TV0 is the tumor volume at day 0. The therapeutic effect of treatment was calculated with formula T/C (%) = mean RTV of the treated group/mean RTV of the control group × 100%. […] The tumor regression of individual mouse was defined as the tumor volume at the end was less than the tumor volume when treatment was initiated.

SMILES: CCc1c2c(nc3ccc(OC(=O)N4CCC(N5CCCCC5)CC4)cc13)-c1cc3c(c(=O)n1C2)COC(=O)[C@]3(O)CC [Irinotecan, reference compound]
- T/C (%): 8.04%
- Inhibition rate (%) (by tumor weight): 96.2%
- Body weight (g) End (mean ± SEM): 21.4 ± 0.2 g
- Tumor weight (mean ± SEM, control 0.79 g): 0.03 ± 0.01 g
